Assay results reported in patent US20160115200A1, “New Use for JNK Inhibitor Molecules for Treatment of Various Diseases” (XIGEN INFLAMMATION LTD., priority 2013, published 2016).
Square brackets hold non-standard residues; d marks the D form. Ends that are not written are not given here.

Key:
[1] = system: Hela cells; assay: Internalization of TAT derived transporters, 24 hours, fluorescence of cell extracts (FIG. 6); format: cell-based; details: Y in position 2
Protocol: The transporter sequences analyzed correspond to SEQ ID NOs: 52-94 plus SEQ ID NOs: 45, 47, 46, 43 and 99 (FIG. 6a) and SEQ ID NOs: 100-147 (FIG. 6b). […] Hela cells were incubated 24 hours in 96 well plate with […] of the respective transporters. The cells were then washed twice with an acidic buffer (0.2M Glycin, 0.15M NaCl, pH 3.0) and twice with PBS. Cells were broken by the addition of RIPA lysis buffer. The relative amount of internalized peptide was then determined by reading the fluorescence intensity (Fusion Alpha plate reader; PerkinElmer) of each extract followed by background subtraction.
Hela cells were incubated 24 hours in 96 well plate with […] of the r3-L-TAT-derived transporters. The cells were then washed twice with an acidic buffer (0.2M Glycin, 0.15M NaCl, pH 3.0) and twice with PBS. Cells were broken by the addition of RIPA lysis buffer. The relative amount of internalized peptide was then determined by reading the fluorescence intensity (Fusion Alpha plate reader; PerkinElmer) of each extract followed by background subtraction

[2] = system: endotoxins-induced uveitis albino rat model; assay: Endotoxins-induced uveitis (EIU), single intravenous injection, clinical scoring 24 h after LPS; format: in vivo; set-up: key to EIU clinical score, median: clinical score per eye, 0 to 4 scale; details: 20 μg/eye sub-conjunctival, 24 hours after LPS
Protocol: The aim of this study was to determine the effects of single intravenous injections of SEQ ID NO: 172 (0.015, 0.18, and 1.80 mg/kg) on the inflammatory response in an endotoxins-induced uveitis albino rat model and to compare these affects to those obtained with prior art JNK inhibitor of SEQ ID NO: 197 (2 mg/kg). As a further control served phosphate sodic dexamethasone.
Sixty (60) male Lewis rats were randomly divided into six (6) groups of ten (10) animals each. EIU was induced by footpad injection of lipopolysaccharide (LPS, 1 mg/kg). NaCl (0.9%), SEQ ID NO: 197 at 2 mg/kg and SEQ ID NO: 172 at three concentrations (1.80 mg/kg, 0.18 mg/kg and 0.015 mg/kg) were administered by intravenous injection. Phosphate sodic dexamethasone (20 μg/eye) was administered by sub-conjunctival injection in both eyes. 24 hours after LPS injection, inflammatory response was evaluated by clinical scoring.
The intensity of clinical ocular inflammation was scored on a scale from 0 to 4 for each eye: […]

[3] = system: established type II collagen arthritis in rats; details: Dex 0.05 mg/kg IV QD
[4] = system: IMQ-induced psoriasis in BALB/c mice; assay: Imiquimod-induced psoriasis in mice, ear histopathology; format: in vivo, mouse; details: Prednisolone 10 mg/kg PO daily; for inflammation of the ear (average histopathology grade) vs vehicle-IMQ group: statistically significant
Protocol: Female BALB/cAnNCrl mice (Charles River, age 8 to 10 weeks at study start) have been assigned to the following groups (treatment schedule):
In this experiment, two positive controls have been utilized. Firstly, Prednisolone at 10 mg/kg (vehicle: 1% Hydroxyethylcellulose, 0.25% Polysorbate 80, and 0.05% Antifoam in purified water) has been dosed daily and orally (group “Prednisolone”). Secondly, Dexamethasone has been administered at 0.5 mg/kg (vehicle: sterile 0.9% NaCl) on days 1, 4 and 7 via intravenous route.
On day 8, animals have been sacrificed and the tissue (ear) has been fixed in 10% neutral buffered formalin. For histopathology hematoxylin-and-eosin-stained sections (cross cut) have been prepared and microscopic evaluation on the collected tissues from all animals has been performed. Methods and end-points for histopathology were similarly described in the van der Fits (2009) paper in that inflammation, epidermal hyperplasia, epidermal hyperkeratosis (rather than parakeratosis) were observed and recorded for severity grade, whereby the respective methodology from Van der Fits et al. (The Journal of Immunology 2009, 182, P. 5836-5845) is hereby incorporated by reference. Histopathology grading scores were excluded for either skin or ear in animals with secondary inflammatory processes (full thickness epidermal ulcers). Scores were averaged by group and standard deviation and statistical significance were calculated. […] Formalin-fixed, paraffin embedded skin from the dorsal surface of the mouse (BALB/c) was stained with hematoxylin and eosin (H&E) stain and assessed microscopically. An important difference from the above reference and to describe in more detail the observations of the present study: Hyperkeratosis can be defined specifically as orthokeratotic (no retained nuclei) or parakeratotic (retained nuclei). Either can occur normally in various anatomical locations and depending on species; however, both conditions are well defined in particular disease states. The van der Fits paper describes their Imiquimod (IMQ)-induced psoriasis model as causing parakeratotic hyperkeratosis similar to what is seen in the human condition, and that was a defined end-point for this study. However, the Danilenko et al. (Veterinary Pathology 2008 45:563) has shown that many rodent psoriasis models have orthokeratotic hyperkeratosis. […] The more general term ‘hyperkeratosis’ was used for grading end-points and describe in the text what type was seen (primarily orthokeratotic).
1=MI=minimal 2=SL=slight 3=M0=moderate 4=MA=marked 5=SE=severe

## rYKRrQRRr ([dR]YKR[dR]QRR[dR]) [SEQ ID NO: 142]
[1]
  transporter activity and kinetics of transport (position scan): highest transporter activity

## C[C@@H]1C[C@H]2[C@@H]3CCC4=CC(=O)C=C[C@]4(C)[C@@]3(F)[C@@H](O)C[C@]2(C)[C@@]1(O)C(=O)CO [dexamethasone, reference compound]
[2]
  EIU clinical score, mean±SEM: 0.8±0.2
  EIU clinical score, median: 0.5
  reduction of clinical scores vs vehicle: 79%
[3]
  spleen weights relative to body weight vs disease controls: significantly (p<0.05 by ANOVA) reduced
  thymus weights relative to body weight vs disease controls: significantly (p<0.05 by ANOVA) reduced

## C[C@]12C=CC(=O)C=C1CC[C@@H]1[C@@H]2[C@@H](O)C[C@@]2(C)[C@H]1CC[C@]2(O)C(=O)CO [Prednisolone, reference compound]
[4]
  epidermal hyperkeratosis of the ear, average grades vs vehicle-IMQ group: minimally decreased average grades
  inflammation of the ear (average histopathology grade) vs vehicle-IMQ group: decreased inflammation of the ear
[4]; not statistically significant
  epidermal hyperplasia of the ear vs vehicle-IMQ group: below that of the vehicle-IMQ dose group
[4]; listed as prednisolone
  inflammation of the ear (average histopathology grade) vs vehicle-IMQ group: significant differences from the vehicle control group
